Assay results reported in the CheMixHub viscosity set.
± gives the uncertainty stated by the source.

Assay: xn = mol fraction of the nth substance listed

C=C1CCC2CC1C2(C)C (stereo not given) + Cc1cc(C)cc(C)c1
viscosity [mPa·s], 101 kPa
Settings | x2 = 0.2198 | x2 = 0.3257 | x2 = 0.429 | x2 = 0.5299 | x2 = 0.6283 | x2 = 0.7245 | x2 = 0.8185 | x2 = 0.9103
303.15 K | 1.254 ± 0.029 | 1.108 ± 0.026 | 0.981 ± 0.024 | 0.871 ± 0.021 | 0.799 ± 0.02 | 0.743 ± 0.019 | 0.696 ± 0.018 | 0.661 ± 0.017
308.5 K | 1.167 ± 0.028 | 1.032 ± 0.025 | 0.915 ± 0.022 | 0.819 ± 0.02 | 0.749 ± 0.019 | 0.695 ± 0.018 | 0.653 ± 0.017 | 0.622 ± 0.016
313.15 K | 1.082 ± 0.026 | 0.959 ± 0.023 | 0.854 ± 0.021 | 0.768 ± 0.019 | 0.698 ± 0.018 | 0.645 ± 0.017 | 0.606 ± 0.016 | 0.576 ± 0.015

CC(=O)[O-].C[N+]1(CC2CO2)CCCC1=O (stereo not given) + O
viscosity [mPa·s], 101 kPa
Settings | 293.15 K | 298.15 K | 303.15 K | 308.15 K | 313.15 K
x1 = 0.0346 | 2.26 ± 0.05 | 1.94 ± 0.04 | 1.67 ± 0.03 | 1.46 ± 0.03 | 1.29 ± 0.03
x1 = 0.0775 | 4.27 ± 0.09 | 3.56 ± 0.07 | 3.01 ± 0.06 | 2.6 ± 0.05 | 2.28 ± 0.05
x1 = 0.1028 | 5.4 ± 0.11 | 4.45 ± 0.09 | 3.71 ± 0.08 | 3.13 ± 0.06 | 2.67 ± 0.06
x1 = 0.2008 | 7.75 ± 0.16 | 6.28 ± 0.13 | 5.18 ± 0.11 | 4.33 ± 0.09 | 3.63 ± 0.07
x1 = 0.3054 | 8.32 ± 0.17 | 6.76 ± 0.14 | 5.57 ± 0.12 | 4.67 ± 0.1 | 3.95 ± 0.08
x1 = 0.4045 | 8.17 ± 0.17 | 6.7 ± 0.14 | 5.56 ± 0.12 | 4.69 ± 0.1 | 4 ± 0.08
x1 = 0.5113 | 7.82 ± 0.16 | 6.47 ± 0.14 | 5.41 ± 0.11 | 4.6 ± 0.1 | 3.94 ± 0.08
x1 = 0.6049 | 7.47 ± 0.16 | 6.23 ± 0.13 | 5.23 ± 0.11 | 4.47 ± 0.1 | 3.85 ± 0.08
x1 = 0.7052 | 7.16 ± 0.15 | 6.01 ± 0.13 | 5.1 ± 0.11 | 4.38 ± 0.09 | 3.79 ± 0.08
x1 = 0.8048 | 6.92 ± 0.15 | 5.83 ± 0.13 | 4.97 ± 0.11 | 4.28 ± 0.09 | 3.72 ± 0.08
x1 = 0.9047 | 6.73 ± 0.15 | 5.68 ± 0.13 | 4.87 ± 0.11 | 4.21 ± 0.09 | 3.67 ± 0.08

NCCN1CCNCC1 + O
101.3 kPa
Settings | viscosity [mPa·s]
298 K, x1 = 0.00152 | 0.92 ± 0.05
298 K, x1 = 0.00275 | 0.95 ± 0.05
298 K, x1 = 0.00774 | 1.11 ± 0.06
298 K, x1 = 0.0161 | 1.38 ± 0.07
298 K, x1 = 0.0255 | 1.82 ± 0.09
303 K, x1 = 0.00152 | 0.87 ± 0.04
303 K, x1 = 0.00275 | 0.89 ± 0.05
303 K, x1 = 0.00774 | 1 ± 0.05
303 K, x1 = 0.0161 | 1.25 ± 0.06
303 K, x1 = 0.0255 | 1.66 ± 0.08
303.2 K, x1 = 0.015 | 1.241 ± 0.026
303.2 K, x1 = 0.024 | 1.651 ± 0.035
303.2 K, x1 = 0.034 | 2.17 ± 0.05
303.2 K, x1 = 0.044 | 2.861 ± 0.063
303.2 K, x1 = 0.056 | 3.918 ± 0.084
303.2 K, x1 = 0.07 | 4.722 ± 0.1
303.2 K, x1 = 0.085 | 5.556 ± 0.12
313 K, x1 = 0.00152 | 0.74 ± 0.04
313 K, x1 = 0.00275 | 0.78 ± 0.04
313 K, x1 = 0.00774 | 0.85 ± 0.04
313 K, x1 = 0.0161 | 1.04 ± 0.05
313 K, x1 = 0.0255 | 1.32 ± 0.07
313.2 K, x1 = 0.015 | 1.001 ± 0.021
313.2 K, x1 = 0.024 | 1.312 ± 0.028
313.2 K, x1 = 0.034 | 1.589 ± 0.035
313.2 K, x1 = 0.044 | 2.074 ± 0.045
313.2 K, x1 = 0.056 | 2.839 ± 0.062
313.2 K, x1 = 0.07 | 3.558 ± 0.077
313.2 K, x1 = 0.085 | 4.367 ± 0.094
323 K, x1 = 0.00152 | 0.6 ± 0.03
323 K, x1 = 0.00275 | 0.61 ± 0.03
323 K, x1 = 0.00774 | 0.69 ± 0.04
323 K, x1 = 0.0161 | 0.83 ± 0.04
323 K, x1 = 0.0255 | 1.03 ± 0.05

C1CCC(C2CCCCC2)CC1 + c1ccc2c(c1)CCCC2
viscosity [mPa·s], 102 kPa
Settings | x2 = 0.1226 | x2 = 0.2394 | x2 = 0.3504 | x2 = 0.4561 | x2 = 0.5573 | x2 = 0.6537 | x2 = 0.747 | x2 = 0.8343 | x2 = 0.9189
293.15 K | 3.67 ± 0.03 | 3.35 ± 0.03 | 3.08 ± 0.03 | 2.87 ± 0.03 | 2.7 ± 0.03 | 2.55 ± 0.03 | 2.44 ± 0.03 | 2.34 ± 0.03 | 2.28 ± 0.03
303.15 K | 2.91 ± 0.02 | 2.67 ± 0.02 | 2.48 ± 0.02 | 2.33 ± 0.02 | 2.2 ± 0.02 | 2.09 ± 0.02 | 2 ± 0.02 | 1.93 ± 0.02 | 1.88 ± 0.02
313.15 K | 2.36 ± 0.02 | 2.19 ± 0.02 | 2.04 ± 0.02 | 1.93 ± 0.02 | 1.83 ± 0.02 | 1.75 ± 0.02 | 1.68 ± 0.02 | 1.62 ± 0.02 | 1.58 ± 0.02
323.15 K | 1.95 ± 0.02 | 1.82 ± 0.02 | 1.71 ± 0.02 | 1.62 ± 0.02 | 1.54 ± 0.02 | 1.48 ± 0.02 | 1.43 ± 0.02 | 1.38 ± 0.02 | 1.35 ± 0.02

C[C@H](O)C(=O)O + O
viscosity [mPa·s], 101 kPa
Settings | x1 = 0.000625 | x1 = 0.000941 | x1 = 0.00124 | x1 = 0.00156 | x1 = 0.001899 | x1 = 0.002188 | x1 = 0.002523 | x1 = 0.002822 | x1 = 0.003145
298.15 K | 0.898 ± 0.007 | 0.902 ± 0.007 | 0.906 ± 0.007 | 0.91 ± 0.007 | 0.914 ± 0.007 | 0.917 ± 0.007 | 0.922 ± 0.007 | 0.926 ± 0.007 | 0.929 ± 0.007
308.15 K | 0.731 ± 0.006 | 0.734 ± 0.006 | 0.736 ± 0.006 | 0.738 ± 0.006 | 0.741 ± 0.006 | 0.744 ± 0.006 | 0.747 ± 0.006 | 0.75 ± 0.006 | 0.753 ± 0.006
318.15 K | 0.601 ± 0.005 | 0.602 ± 0.005 | 0.604 ± 0.005 | 0.605 ± 0.005 | 0.607 ± 0.005 | 0.61 ± 0.005 | 0.612 ± 0.005 | 0.614 ± 0.005 | 0.616 ± 0.005

NCCNCCN + CCCCCCO
viscosity [mPa·s], 101 kPa
Settings | 298.15 K | 303.15 K | 308.15 K
x1 = 0.0573 | 5.116 ± 0.11 | 4.247 ± 0.093 | 3.626 ± 0.079
x1 = 0.1064 | 5.533 ± 0.12 | 4.59 ± 0.1 | 3.929 ± 0.086
x1 = 0.1567 | 5.928 ± 0.13 | 4.857 ± 0.11 | 4.134 ± 0.091
x1 = 0.2089 | 6.207 ± 0.14 | 5.066 ± 0.11 | 4.274 ± 0.095
x1 = 0.2683 | 6.373 ± 0.14 | 5.168 ± 0.11 | 4.367 ± 0.096
x1 = 0.2986 | 6.429 ± 0.14 | 5.206 ± 0.12 | 4.393 ± 0.097
x1 = 0.4054 | 6.424 ± 0.14 | 5.195 ± 0.12 | 4.362 ± 0.097
x1 = 0.5082 | 6.261 ± 0.14 | 5.038 ± 0.11 | 4.22 ± 0.094
x1 = 0.6024 | 5.991 ± 0.13 | 4.851 ± 0.11 | 4.058 ± 0.09
x1 = 0.7078 | 5.825 ± 0.13 | 4.666 ± 0.1 | 3.925 ± 0.087
x1 = 0.7906 | 5.648 ± 0.12 | 4.568 ± 0.1 | 3.857 ± 0.085
x1 = 0.8419 | 5.594 ± 0.12 | 4.524 ± 0.1 | 3.828 ± 0.084
x1 = 0.9102 | 5.589 ± 0.12 | 4.493 ± 0.1 | 3.81 ± 0.084
x1 = 0.9579 | 5.579 ± 0.12 | 4.478 ± 0.1 | 3.801 ± 0.083

CCCCOCCOCCOCCCC + CCCN
298.15 K, 101 kPa
Settings | viscosity [mPa·s]
x1 = 0.0095 | 0.375 ± 0.007
x1 = 0.0288 | 0.417 ± 0.007
x1 = 0.0455 | 0.45 ± 0.007
x1 = 0.0845 | 0.529 ± 0.007
x1 = 0.1266 | 0.622 ± 0.008
x1 = 0.1754 | 0.719 ± 0.009
x1 = 0.2172 | 0.806 ± 0.009
x1 = 0.2531 | 0.87 ± 0.01
x1 = 0.266 | 0.904 ± 0.01
x1 = 0.3172 | 0.994 ± 0.011
x1 = 0.3559 | 1.055 ± 0.011
x1 = 0.3977 | 1.129 ± 0.012
x1 = 0.4621 | 1.24 ± 0.013
x1 = 0.516 | 1.33 ± 0.014
x1 = 0.5979 | 1.489 ± 0.016
x1 = 0.6482 | 1.579 ± 0.017
x1 = 0.6986 | 1.689 ± 0.018
x1 = 0.7471 | 1.774 ± 0.019
x1 = 0.7956 | 1.869 ± 0.02
x1 = 0.8618 | 2.01 ± 0.022
x1 = 0.9261 | 2.093 ± 0.024
x1 = 0.9641 | 2.143 ± 0.025
